Experimental data: patent publication US12110523B2, “Reagents and methods for esterification” (Wisconsin Alumni Research Foundation, priority 2015, dated 2024)

Experiments:
[1] = acetonitrile and acetonitrile/aqueous buffer (3:1 v/v); cited from earlier work
CHO K1 cells = experiment: Internalization of esterified GFP by CHO K1 cells (flow cytometry, confocal microscopy); assay type: cell-based, Chinese hamster; conditions: 15 μM GFP, 37° C., 2 h, versus unlabeled GFP
Source text: FIG. 8 is a graph showing quantification of internalization of labeled versus unlabeled GFP by CHO K1 cells using flow cytometry measuring median fluorescence intensity. Single cells were sorted based on forward scatter-side scatter measurements, and live cells were sorted using 7AAD (7-amino-actinomycin D) stain.
FIGS. 9A-C illustrate microscopy images of uptake of esterified GFP (green) by CHO K1 cells. FIG. 9A: Not esterified. FIG. 9B: Esterified with α-diazo-4-methylphenyl-N-propargylacetamide. FIG. 9C: Esterified with α-diazo-4-methylphenyl-N,N-dimethylacetamide. Cell nuclei are stained with Hoechst 33342 (blue).
Chinese hamster ovary (CHO) K1 cells were incubated at 37° C. for 2 h in F-12K medium (which was supplemented with penicillin/streptomycin) containing either unlabeled or labeled GFP (15 μM). […] Individual cells were imaged by confocal microscopy for two of the diazo compounds.

[2] = measured in dimethylsulfoxide; cited from earlier work
RNase A = target: T1, RNase A (Bos taurus, UniProt P61823); conditions: at 10 eq; of eleven carboxylates; cited from earlier work
T1 sequence (P61823 27-150): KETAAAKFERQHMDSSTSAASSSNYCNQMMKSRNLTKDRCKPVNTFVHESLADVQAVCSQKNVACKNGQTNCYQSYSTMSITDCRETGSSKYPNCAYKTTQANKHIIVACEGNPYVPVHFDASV

SMILES	formation of the desired ester with carboxylic acids [1]	uptake of GFP esterified with the diazo compound into CHO K1 cells (CHO K1 cells)	further results
CCOC(=O)C(=[N+]=[N-])C(=O)OCC [diethyl 2-diazomalonate]	unreactive	–	–
Cc1ccc(C(=[N+]=[N-])C(=O)N(C)C)cc1 [Diazo compound 12, α-diazo-4-methylphenyl-N,N-dimethylacetamide]	–	enhanced	–
CCOC(=O)CC(=O)OCC [diethylmalonate]	–	–	pKa [2]: 16.4
[N-]=[N+]=C1c2ccccc2-c2ccccc21 [9-diazofluorene]	gave the desired ester in aqueous medium	–	average number of carboxylates labeled in RNase A (RNase A): three
CNC(=O)C(=[N+]=[N-])c1ccc(C)cc1 [Diazo compound 11, α-diazo-4-methylphenyl-N-methylacetamide]	–	enhanced	–
